Measured values published in ChEMBL document CHEMBL3988442, “University of Dundee, Small-Polar-MMV Screening Library” (2021).

Target: Tryptophan--tRNA ligase (Mycobacterium tuberculosis (strain ATCC 25618 / H37Rv), UniProt P9WFT3)
Assay: Biochemical assay for Mt-TrpRS
Assay type: functional

Chain of Tryptophan--tRNA ligase (P9WFT3 whole entry): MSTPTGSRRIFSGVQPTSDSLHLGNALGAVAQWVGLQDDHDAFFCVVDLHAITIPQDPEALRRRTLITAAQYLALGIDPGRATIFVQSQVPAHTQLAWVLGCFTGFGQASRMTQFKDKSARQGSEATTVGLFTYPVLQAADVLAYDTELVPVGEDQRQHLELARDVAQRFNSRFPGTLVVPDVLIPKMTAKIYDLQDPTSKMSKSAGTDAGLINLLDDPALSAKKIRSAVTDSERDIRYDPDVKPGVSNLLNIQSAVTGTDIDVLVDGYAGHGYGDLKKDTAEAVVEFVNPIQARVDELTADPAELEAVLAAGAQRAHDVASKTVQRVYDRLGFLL

Row | Structure (SMILES) | IC50
1 | COc1ccc(CN2CC[C@H](NC(C)=O)[C@@H](O)CC2)c(F)c1 | > 195 µM
2 | Cc1nc(C(=O)NCc2ccccn2)cc(C2CCCN2)n1 (centres undefined) | > 195 µM
3 | CN(C)C(=O)CN1CCO[C@H]2CN(Cc3ccoc3)C[C@H]21 | > 195 µM
4 | CS(=O)(=O)c1nccn1Cc1ccc(F)cc1Cl | > 195 µM
5 | COc1ccc(S(=O)(=O)N2CCC(O)(CN(C)C)C2)cc1 (centres undefined) | > 195 µM
6 | O=C(NS(=O)(=O)c1cccnc1)C1CC(c2ccccc2)=NO1 (centres undefined) | > 195 µM
7 | CC(=O)N1CCCC(Cc2nccn2C)C1 (centres undefined) | > 195 µM
8 | COc1ccc(-c2cc(N)on2)cc1 | > 195 µM
9 | Cc1cc(C)c(CNC(=O)NCc2nnc3n2CCC3)c(=O)[nH]1 | > 195 µM
10 | Cc1cc(N(C)C)nc(C2CCNC2)n1 (centres undefined) | > 195 µM
11 | CCOCc1cnc2n1CCN(C(=O)c1ccoc1C)C2C (centres undefined) | > 195 µM
12 | Cc1cc(C[C@@H]2CCC[C@H]2NCc2ccccc2F)on1 | > 195 µM
13 | CNC(=O)c1cnn2c(C3CCCN3C)ccnc12 (centres undefined) | > 195 µM
14 | c1ccc(CO[C@H]2C[C@@H]3CN(Cc4cccnc4)C[C@@H]3C2)cc1 | > 195 µM
15 | CC(=O)N1CCCC(c2ccccn2)C1 (centres undefined) | > 195 µM
16 | Cc1ccc2cc(CNCCN3CCCC3)c(=O)[nH]c2c1 | > 195 µM
17 | CC(NCc1c(C(C)C)nn(C)c1N1CCOCC1)C(=O)N(C)C (centres undefined) | > 195 µM
18 | CC(=O)N1CCCC1c1cccc(Cc2ccccc2Cl)n1 (centres undefined) | > 195 µM
19 | CCOC1CC2(CCN(Cc3nccn3C)CC2)C1 | > 195 µM
20 | c1cn(-c2cnc(C3CCNCC3)cn2)cn1 | > 195 µM
21 | Cc1ccc(Cn2cc(C)c(N)n2)cc1 | > 195 µM
22 | CCCNc1ccc(C(=O)NCCc2cccc(OC)c2)cn1 | > 195 µM
23 | Cc1nc(Nc2nncs2)cc(C2CCCN2C)n1 (centres undefined) | > 195 µM
24 | Cc1nn(C)c(N(C)C)c1CNCCS(C)(=O)=O | > 195 µM
25 | O=C(c1ccco1)N1C(CO)[C@]2(O)CC[C@H]1CC2 (some centres undefined) | > 195 µM
26 | CC(=O)Nc1nc(C2CCN(C(=O)c3cncs3)CC2)cs1 | > 195 µM

Row | Structure (SMILES) | IC50
27 | CN(Cc1cccnc1)Cc1cncc2c1CCN(c1ccccn1)C2 | > 195 µM
28 | CN(C)C(=O)CN1CCOCC2(C1)CN(c1ncccn1)CCO2 (centres undefined) | > 195 µM
29 | Cn1c(=O)c2cc(C(=O)NCCc3ccccc3)ccc2n(C)c1=O | > 195 µM
30 | O=C([C@H]1COC[C@H]2CN(c3ccncn3)C[C@H]21)N1CCCC1 | > 195 µM
31 | Cn1ccc(C(=O)N2CCOC(c3ccccn3)C2)cc1=O (centres undefined) | > 195 µM
32 | Cc1c(Br)cc2c(c1C)OCC(N(C)C)C2=O (centres undefined) | > 195 µM
33 | Cn1cncc1CN1CC[C@](C)(O)[C@@H](Oc2cccc(F)c2)C1 | > 195 µM
34 | COc1ccc(CN2C[C@@H](O)[C@](O)(CNC(=O)c3ccccn3)C2)cc1 | > 195 µM
35 | Cc1nc(CN2CCC3(C2)CN(Cc2ccco2)C3)cs1 | > 195 µM
36 | Cc1cnc(N)c(C(=O)C2CCN(C(=O)c3cnc(C)cn3)CC2)c1 | > 195 µM
37 | COCCC(=O)NCCn1nc(C2CCNC2)c2cccnc21 (centres undefined) | > 195 µM
38 | CC(C)N(C)Cc1cncc2c1CCN(Cc1ccoc1)C2 | > 195 µM
39 | CN(C)c1cncc(C2CCN(CC(N)=O)CC2)n1 | > 195 µM
40 | CCc1noc(CN2CCN(c3nccs3)CC2)n1 | > 195 µM
41 | CCc1ccc(C(=O)N2CCN(CC(O)CC)CC2)o1 (centres undefined) | > 195 µM
42 | CC(C)c1ccc(-n2ncc(C(=O)NCC3COC(C)(C)O3)c2N)cc1 (centres undefined) | > 195 µM
43 | CC(C)NC(=O)c1nc2c(s1)CCCN2C(C)C | > 195 µM
44 | COCC(=O)N1CCO[C@]2(CCC[C@H]2COC)C1 | > 195 µM
45 | Nc1nccnc1C1CN(C(=O)c2ccnnc2)CCO1 (centres undefined) | > 195 µM
46 | Cc1ccc(N2CCc3ncnc(C)c3CC2)nn1 | > 195 µM
47 | NC(=O)CN1CCOCC(Cc2ccccc2)C1 (centres undefined) | > 195 µM
48 | CCS(=O)(=O)NCCCNCc1c(C)nn(C)c1N(C)C | > 195 µM
49 | COc1ccc(CNc2cnn(CC(F)F)c2)cc1 | > 195 µM
50 | CNC(=O)C1(CCCc2ccncc2)CCCCN1 (centres undefined) | > 195 µM
51 | NCC(=O)N1CCCC1c1n[nH]cc1-c1ccccc1F (centres undefined) | > 195 µM
52 | COCCN1CCN(CCS(C)(=O)=O)CC1C (centres undefined) | > 195 µM

Row | Structure (SMILES) | IC50
53 | CC(C)C(=O)N1CCC(C)(c2cc(O)[nH]n2)CC1 | > 195 µM
54 | O=C(c1cncs1)N1CCC(c2cnccn2)CC1 | > 195 µM
55 | COCCN1CCC(NCc2ccc(F)cc2F)C1 (centres undefined) | > 195 µM
56 | CS(=O)(=O)NC1CCN(C(=O)NCC2CCCO2)CC1 (centres undefined) | > 195 µM
57 | Cc1ccccc1-c1cncc(C2CCN(CCO)CC2)n1 | > 195 µM
58 | Cc1nc(CCC(=O)NCC(N)=O)cc(C2CCNCC2)n1 | > 195 µM
59 | O=C(C1CCCC1)N1CCC(c2n[nH]c3nccnc23)CC1 | > 195 µM
60 | Cn1nccc1C(=O)N1CCCC1c1[nH]ncc1C(N)=O (centres undefined) | > 195 µM
61 | CN(Cc1ccc(F)cc1)CC1(O)CCN(C(=O)c2ccsc2)C1 (centres undefined) | > 195 µM
62 | CC(CC#N)n1ccc(C(F)(F)F)n1 (centres undefined) | > 195 µM
63 | c1cn(-c2cncc(C3CCNCC3)n2)cn1 | > 195 µM
64 | O=C(CC1CC1)N1CCC2(CC1)C(=O)NCCN2Cc1ccccc1 | > 195 µM
65 | Cc1nc(Cn2c3c(ccc2=O)CC(NC(N)=O)CC3)cs1 (centres undefined) | > 195 µM
66 | CSCCC(NC(=O)c1nc(SC)ncc1Cl)C(=O)O (centres undefined) | > 195 µM
67 | CC(=O)N1CCC(Cc2cnc(C(=O)N3CCCC3)cn2)C1 (centres undefined) | > 195 µM
68 | Cc1ccnc(C2CCN(C(=O)c3cnn(C)c3)C2)n1 (centres undefined) | > 195 µM
69 | NC(=O)C1(CCCc2ccccn2)CCCN(Cc2ncc[nH]2)C1 (centres undefined) | > 195 µM
70 | O=C1CCC(=O)N1c1nn(Cc2ccc(F)cc2)cc1Cl | > 195 µM
71 | O=C(NCc1cncc2c1CCN(CC1CCOC1)C2)c1ccco1 (centres undefined) | > 195 µM
72 | O=C(O)c1ccccc1CN1CCOC(CCc2ccncn2)C1 (centres undefined) | > 195 µM
73 | COCCC(=O)N1CCCC1c1csc(Nc2ccccn2)n1 (centres undefined) | > 195 µM
74 | CNCC(=O)N1CCCCC1c1nccc(C)n1 (centres undefined) | > 195 µM
75 | Cn1cc(C(=O)NCc2cncc3c2CCN(CC2CC2)C3)cn1 | > 195 µM
76 | COc1cccc(S(=O)(=O)N2C[C@@H](O)[C@H](N(C)C)C2)c1 | > 195 µM
77 | COCCN1CC(C(=O)N(C)Cc2ccc(Cl)s2)CC1=O (centres undefined) | > 195 µM
78 | CC(=O)N1CCCC(c2cccc(-n3ccnc3)n2)C1 (centres undefined) | > 195 µM

Row | Structure (SMILES) | IC50
79 | COc1c(C(=O)N2CCC(CSc3ccccc3)C2)c(C)nn1C (centres undefined) | > 195 µM
80 | CC(C)CC(=O)N1CC(=O)N(CCc2ccccc2)CC(O)C1 (centres undefined) | > 195 µM
81 | OCc1nnc2n1CCN(c1cnccn1)C2 | > 195 µM
82 | CCCC(O)CN1CC(C)(C)CN(C(=O)CCc2ccccc2)CC1=O (centres undefined) | > 195 µM
83 | Cc1cccc(C2CCCN(C(=O)c3ccncc3)C2)n1 (centres undefined) | > 195 µM
84 | CN(CC(=O)Nc1cccnc1)C1CCCN(c2cccnn2)C1 (centres undefined) | > 195 µM
85 | O=C(Cc1cccs1)N1Cc2nc(CN3CCCC3)oc2C1 | > 195 µM
86 | COCC(=O)N1CCOC(c2ccc(N(C)C)cn2)C1 (centres undefined) | > 195 µM
87 | Cc1cccc(CN2CCC(c3nnsc3S(C)(=O)=O)CC2)c1 | > 195 µM
88 | O=C1CCC(=O)N1c1nn(Cc2cccc(F)c2)cc1Cl | > 195 µM
89 | CNc1cncc(C2CCCN2Cc2cccc(C)n2)n1 (centres undefined) | > 195 µM
90 | COCCN1CC=C(c2cccc(OC)c2)CC1 | > 195 µM
91 | C[S+]([O-])CCNC(=O)Nc1cc(F)ccc1-n1cccn1 (centres undefined) | > 195 µM
92 | O=S(=O)(c1cccs1)N1CCCC(c2nccs2)C1 (centres undefined) | > 195 µM
93 | COCCC(=O)N1CCCC(c2nc(O)cc(-c3ccncc3)n2)C1 (centres undefined) | > 195 µM
94 | CNc1cccc(C2CCCN(C(=O)c3ccn(C)n3)C2)n1 (centres undefined) | > 195 µM
95 | COC(=O)CCCNC(=O)Nc1ccccc1OC | > 195 µM
96 | COCCc1noc(CN(C)C2CCCN(c3cccnn3)C2)n1 (centres undefined) | > 195 µM
97 | O=C(c1ccccc1)N1CCO[C@@H]2CN(Cc3ccc[nH]3)C[C@@H]2C1 | > 195 µM
98 | Cn1nc(C#N)c2c1CN(C(=O)c1ccco1)CCC2 | > 195 µM
99 | Cc1cnn(CC2CCCN2Cc2nc(N)c3ccccc3n2)c1 (centres undefined) | > 195 µM
100 | Cc1cc(NC(=O)CNC2CCc3nc(C(C)C)nn3C2)no1 (centres undefined) | > 195 µM
101 | CC(=O)N1CCC(C(=O)N2CCC2c2nc(-c3ccc(C)s3)no2)CC1 (centres undefined) | > 195 µM
102 | CS(=O)(=O)NC[C@]1(O)CCN(C(=O)Cc2cccs2)C[C@H]1O | > 195 µM
103 | CC(=O)N1CCCC(c2ccc(C(N)=O)cn2)C1 (centres undefined) | > 195 µM
104 | Fc1cccc(CN2C[C@@H]3CN(c4ncccn4)C[C@@H]3C2)c1 | > 195 µM

Row | Structure (SMILES) | IC50
105 | CC1CN(Cc2ccccc2)CCCN1CCNS(C)(=O)=O (centres undefined) | > 195 µM
106 | CC(=O)N(C)C(c1cccc(F)c1)c1ccccn1 (centres undefined) | > 195 µM
107 | O=C1CO[C@H]2CN(Cc3ccccc3Br)C[C@@H]2N1 | > 195 µM
108 | NC(=O)C1(Cc2ccc(-c3ccccc3)cc2)CCNC1 (centres undefined) | > 195 µM
109 | Cc1cnc(N)c(C(=O)C2CCN(C(=O)C3CCC3)CC2)c1 | > 195 µM
110 | NC(=O)C1CCN(C(=O)c2ccn(-c3ccc(F)cc3)n2)CC1 | > 195 µM
111 | Cc1cnc(N2CCOC(C(=O)NCc3ccccc3)C2)s1 (centres undefined) | > 195 µM
112 | N#Cc1cccc(CN2CC[C@@H]3CN(c4ncccn4)CCO[C@@H]3C2)c1 | > 195 µM
113 | Cn1ccc(C(=O)N2CCC(Cc3cnc4[nH]ccc4c3)C2)n1 (centres undefined) | > 195 µM
114 | Cn1ccc(C(=O)N2CCCC2c2[nH]ncc2C(N)=O)n1 (centres undefined) | > 195 µM
115 | Cc1cnn(CCCNC2Cc3ccccc3C2)c1 | > 195 µM
116 | COCc1cc(O)nc(C2CCCN(Cc3cccc(Cl)c3Cl)C2)n1 (centres undefined) | > 195 µM
117 | CN(C)C(=O)NCC1CC2(CO1)CN(c1nncs1)C2 (centres undefined) | > 195 µM
118 | Cc1ccc(S(=O)(=O)Nc2ccc(=O)n(C)c2)c(Br)c1 | > 195 µM
119 | COCCN1C(=O)CC[C@@H]2[C@H]1CCN2S(=O)(=O)c1cccs1 | > 195 µM
120 | C[C@H](N)Cn1nc(-c2cccs2)oc1=O | > 195 µM
121 | O=C(Cc1cccc(O)c1)N1CCCC(O)(CN2CCOCC2)CC1 (centres undefined) | > 195 µM
122 | CNc1nccnc1C1CCN(C(C)C)CC1 | > 195 µM
123 | COC1CN(C(=O)CC2CCCC2)CCC(=O)N(C)c2ccccc21 (centres undefined) | > 195 µM
124 | O=C(COC[C@]12COC[C@H]1CN(C1CCC1)C2)N1CCCC1 | > 195 µM
125 | CCC(NC(=O)c1nn(C)cc1C(=O)O)c1ccc(C)cc1C (centres undefined) | > 195 µM
126 | Cc1cc(N)cc(C2CN(Cc3cc[nH]n3)CCO2)n1 (centres undefined) | > 195 µM
127 | CN1CCCN(C(=O)c2ccnn2-c2ccc3ccccn23)CC1 | > 195 µM
128 | CS(=O)(=O)CC(=O)N1C[C@H]2CCC[C@@]2(COc2ccccn2)C1 | > 195 µM
129 | CS(=O)(=O)NCc1cn2c(n1)CN(Cc1cccnc1)CC2 | > 195 µM
